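96-well plates; 48 h exposure; 5 concentrations. Endpoints by linear interpolation between flanking doses. Not reached: highest tested concentration assigned. The concentration for full growth arrest is given as TGI.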
Legend:
Assay in all cases: inhibition of tumour cell growth, NCI panel, 48 h
[1] = tested on: HCT-116 colon
[2] = tested on: OVCAR-4 ovarian
[3] = tested on: SK-MEL-28 melanoma
[4] = tested on: SK-OV-3 ovarian
[5] = tested on: COLO 205 colon
[6] = tested on: RXF 393 renal
[7] = tested on: CCRF-CEM leukemia
[8] = tested on: MCF7 breast
[9] = tested on: T-47D breast
[10] = tested on: UO-31 renal
[11] = tested on: MDA-N
[12] = tested on: U251 CNS
[13] = tested on: SF-539 CNS
[14] = tested on: NCI/ADR-RES ovarian
[15] = tested on: UACC-62 melanoma
[16] = tested on: MDA-MB-435
[17] = tested on: ACHN renal
[18] = tested on: NCI-H23 lung
[19] = tested on: NCI-H460 lung
[20] = tested on: DU-145 prostate
[21] = tested on: MDA-MB-231 breast
[22] = tested on: OVCAR-3 ovarian
[23] = tested on: LOX IMVI melanoma
[24] = tested on: RPMI-8226 leukemia
[25] = tested on: 786-0 renal
[26] = tested on: SF-295 CNS
[27] = tested on: IGROV1 ovarian
[28] = tested on: SN12C renal
[29] = tested on: M14 melanoma
[30] = tested on: NCI-H522 lung
[31] = tested on: HCT-15 colon
[32] = tested on: OVCAR-5 ovarian
[33] = tested on: A498 renal
[34] = tested on: UACC-257 melanoma
[35] = tested on: HS 578T breast
[36] = tested on: SK-MEL-5 melanoma
[37] = tested on: SNB-75 CNS
[38] = tested on: HL-60(TB) leukemia
[39] = tested on: HT29 colon
[40] = tested on: HCC-2998 colon
[41] = tested on: SF-268 CNS
[42] = tested on: KM12 colon
[43] = tested on: K-562 leukemia
[44] = tested on: CAKI-1 renal
[45] = tested on: OVCAR-8 ovarian
[46] = tested on: PC-3 prostate
[47] = tested on: NCI-H226 lung
[48] = tested on: EKVX NSCLC
[49] = tested on: HOP-62 NSCLC
[50] = tested on: SW-620 colon
[51] = tested on: A549 NSCLC
[52] = tested on: SK-MEL-2 melanoma
[53] = tested on: HOP-92 NSCLC
[54] = tested on: TK-10 renal
[55] = tested on: SNB-19 CNS
[56] = tested on: MALME-3M melanoma
[57] = tested on: BT-549 breast
[58] = tested on: MOLT-4 leukemia

**Q.** Which results are given for `COc1ccc2nc3cccc([N+](=O)[O-])c3c(NCCO)c2c1`?
**A.** TGI [1]: 5.45 nM; TGI [2]: 153 nM; TGI [3]: 62.6 nM; TGI [4]: 752 nM; TGI [5]: 14.6 nM; TGI [6]: 27.4 nM; TGI [7]: 2680 nM; TGI [8]: 296 nM; TGI [9]: 805 nM; TGI [10]: 50.4 nM; TGI [11]: 23.4 nM; TGI [12]: 122 nM; TGI [13]: 52 nM; TGI [14]: 93.9 nM; TGI [15]: 48.1 nM; TGI [16]: 18.6 nM; TGI [17]: 50.4 nM; TGI [18]: 62.4 nM; TGI [19]: 23.3 nM; TGI [20]: 61.9 nM; TGI [21]: 41 nM; TGI [22]: 41.9 nM; TGI [23]: 4.94 nM; TGI [24]: 19 nM; TGI [25]: 64.9 nM; TGI [26]: 1030 nM; TGI [27]: 479 nM; TGI [28]: 79.2 nM; TGI [29]: 22.8 nM; TGI [30]: 43 nM; TGI [31]: 48.1 nM; TGI [32]: 69.8 nM; TGI [33]: 117 nM; TGI [34]: 81.3 nM; TGI [35]: 64.4 nM; TGI [36]: 61.4 nM; TGI [37]: 336 nM; TGI [38]: 94.3 nM; TGI [39]: 125 nM; TGI [40]: 39.5 nM; TGI [41]: 111 nM; TGI [42]: 149 nM; TGI [43]: 18.1 nM; TGI [44]: 70.6 nM; TGI [45]: 53.2 nM; TGI [46]: 98.2 nM; TGI [47]: 176 nM; TGI [48]: 64.8 nM; TGI [49]: 66.8 nM; TGI [50]: 8.62 nM; TGI [51]: 90.9 nM; TGI [52]: 36.8 nM; TGI [53]: 49.9 nM; TGI [54]: 142 nM; TGI [55]: 875 nM; TGI [56]: 33.7 nM

**Q.** For `O=C(O)C1CCCN1Cc1cc2ccccc2c2ccccc12` (configuration not stated), which TGI [1] is on record?
**A.** > 100000 nM

**Q.** And the TGI [2]?
**A.** > 100000 nM

**Q.** And the TGI [3]?
**A.** > 100000 nM

**Q.** And the TGI [4]?
**A.** > 100000 nM

**Q.** What about the TGI [5] of the same compound?
**A.** > 100000 nM

**Q.** And the TGI [6]?
**A.** > 100000 nM

**Q.** And the TGI [8]?
**A.** > 100000 nM

**Q.** What about the TGI [9] of the same compound?
**A.** > 100000 nM

**Q.** And the TGI [10]?
**A.** > 100000 nM

**Q.** What about the TGI [11] of the same compound?
**A.** > 100000 nM

**Q.** What about the TGI [12] of the same compound?
**A.** > 100000 nM

**Q.** And the TGI [13]?
**A.** > 100000 nM

**Q.** And the TGI [14]?
**A.** > 100000 nM

**Q.** And the TGI [15]?
**A.** > 100000 nM

**Q.** And the TGI [16]?
**A.** > 100000 nM

**Q.** And the TGI [57]?
**A.** > 100000 nM

**Q.** What about the TGI [17] of the same compound?
**A.** > 100000 nM

**Q.** And the TGI [18]?
**A.** > 100000 nM

**Q.** What about the TGI [19] of the same compound?
**A.** > 100000 nM

**Q.** What about the TGI [20] of the same compound?
**A.** > 100000 nM

**Q.** And the TGI [21]?
**A.** > 100000 nM

**Q.** And the TGI [22]?
**A.** > 100000 nM

**Q.** And the TGI [23]?
**A.** > 100000 nM

**Q.** And the TGI [24]?
**A.** > 100000 nM

**Q.** And the TGI [25]?
**A.** > 100000 nM

**Q.** What about the TGI [26] of the same compound?
**A.** > 100000 nM

**Q.** What about the TGI [27] of the same compound?
**A.** > 100000 nM

**Q.** What about the TGI [28] of the same compound?
**A.** > 100000 nM

**Q.** And the TGI [29]?
**A.** > 100000 nM

**Q.** And the TGI [30]?
**A.** > 100000 nM

**Q.** And the TGI [31]?
**A.** > 100000 nM

**Q.** And the TGI [32]?
**A.** > 100000 nM

**Q.** What about the TGI [33] of the same compound?
**A.** > 100000 nM

**Q.** What about the TGI [34] of the same compound?
**A.** > 100000 nM

**Q.** What about the TGI [35] of the same compound?
**A.** > 100000 nM

**Q.** And the TGI [36]?
**A.** > 100000 nM

**Q.** And the TGI [37]?
**A.** > 100000 nM

**Q.** And the TGI [38]?
**A.** > 100000 nM

**Q.** And the TGI [39]?
**A.** > 100000 nM

**Q.** What about the TGI [41] of the same compound?
**A.** > 100000 nM

**Q.** And the TGI [58]?
**A.** > 100000 nM

**Q.** And the TGI [42]?
**A.** > 100000 nM

**Q.** What about the TGI [43] of the same compound?
**A.** > 100000 nM

**Q.** And the TGI [44]?
**A.** > 100000 nM

**Q.** And the TGI [45]?
**A.** > 100000 nM

**Q.** What about the TGI [46] of the same compound?
**A.** > 100000 nM

**Q.** What about the TGI [47] of the same compound?
**A.** > 100000 nM

**Q.** And the TGI [48]?
**A.** > 100000 nM

**Q.** And the TGI [49]?
**A.** > 100000 nM

**Q.** What about the TGI [50] of the same compound?
**A.** > 100000 nM

**Q.** What about the TGI [51] of the same compound?
**A.** > 100000 nM

**Q.** And the TGI [52]?
**A.** > 100000 nM

**Q.** And the TGI [53]?
**A.** > 100000 nM

**Q.** What about the TGI [54] of the same compound?
**A.** > 100000 nM

**Q.** And the TGI [55]?
**A.** > 100000 nM

**Q.** And the TGI [56]?
**A.** > 100000 nM
